Measured values: the supplement of paper PMC11208160

Test: recombinant UMI read abundance after kanamycin selection (control-corrected) (log10(CPM+1)); higher = more efficient recombination; extreme values may be limits of the assay; sequences stand for … in AGTGCAGAGAAAATCGGCCAGTTTTCTCTGCCTGCAGTCCGCATGCCGTGGGACCCCTTGGGTTCTAACCTGTTGCCTAGATTTATGCAGCGGACTGCCTTTCTCCCAAAGTGATAAACCGG…AGGTTGGTTTCACT; site = the 11-nt donor
Method in brief: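 Each donor and donor-binding-loop pair was tracked by a 12-nt UMI on a plasmid carrying a promoterless kanamycin gene. With a second plasmid supplying a fixed target and T7-inducible IS621 bridge recombinase, the pool was plated in Escherichia coli on IPTG (0.07 mM) plus kanamycin or unselected. Sequencing of recombinant UMIs across the donor–target junction gave counts expressed as log10(CPM+1) after replicate averaging and control-derived scaling.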
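Also: IS621 bridge recombinase in Escherichia coli cells against a fixed T5 target plasmid.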

Sequence	recombinant UMI read abundance (log10)
CAAGGAGCATGGACCGGTTTTCCCGGTAATCCGTATTTGCT (site CAAGGAGCTAG)	2.76
CAAGGAGCATGGACCGGTTTTCCCGGTAATCCGTATTTGCT (site CAAGTAGCTAG)	2.2
CAAGGCCCATGGACCGGTTTTCCCGGTAATCCGTATTTGTC (site CAAGGCCCTGA)	2.07
CAAGGCTCATGGACCGGTTTTCCCGGTAATCCGTATTTGAA (site CAAAGCTCTTT)	2.15
CAAGGCTCATGGACCGGTTTTCCCGGTAATCCGTATTTGAA (site CAACGCTCTTT)	0.00296
CAAGGCTCATGGACCGGTTTTCCCGGTAATCCGTATTTGAA (site CAAGGCTCTTT)	2.71
CAAGGCTCATGGACCGGTTTTCCCGGTAATCCGTATTTGAA (site CAATGCTCTTT)	0.368
CAAGTATCATGGACCGGTTTTCCCGGTAATCCGTATTTGAC (site CAAGTATCTGT)	2.94
CAAGTATCATGGACCGGTTTTCCCGGTAATCCGTATTTGAC (site CCAGTATCTGT)	0.955
CAAGTATCATGGACCGGTTTTCCCGGTAATCCGTATTTGAC (site CGAGTATCTGT)	2.2
CAAGTATCATGGACCGGTTTTCCCGGTAATCCGTATTTGAC (site CTAGTATCTGT)	2.04
CAAGTCACATGGACCGGTTTTCCCGGTAATCCGTATTTGGT (site CAAGTCACTAC)	1.84
CAAGTCACATGGACCGGTTTTCCCGGTAATCCGTATTTGGT (site CAAGTCACTCC)	0.00397
CAAGTCACATGGACCGGTTTTCCCGGTAATCCGTATTTGGT (site CAAGTCACTGC)	2.43
CAAGTCACATGGACCGGTTTTCCCGGTAATCCGTATTTGGT (site CAAGTCACTTC)	0.155
CAAGTCACATGGACCGGTTTTCCCGGTAATCCGTATTTGTT (site CAAGTCACTAA)	2.2
CAATACACATGGACCGGTTTTCCCGGTAATCCGTATTTGCA (site CAATACACTTG)	2.2
CAATACCCATGGACCGGTTTTCCCGGTAATCCGTATTTGCT (site CAATACCCTAG)	1.93
CAATACCCATGGACCGGTTTTCCCGGTAATCCGTATTTGCT (site CAATCCCCTAG)	1.55

Sequence	recombinant UMI read abundance (log10)
CAATACCCATGGACCGGTTTTCCCGGTAATCCGTATTTGCT (site CAATGCCCTAG)	0.00435
CAATACCCATGGACCGGTTTTCCCGGTAATCCGTATTTGCT (site CAATTCCCTAG)	0
CAATAGCCATGGACCGGTTTTCCCGGTAATCCGTATTTGCC (site CAATAGCCTGG)	0.755
CAATATCCATGGACCGGTTTTCCCGGTAATCCGTATTTGTT (site CAATATCCTAA)	1.7
CAATCAGCATGGACCGGTTTTCCCGGTAATCCGTATTTGCT (site CAAACAGCTAG)	0
CAATCAGCATGGACCGGTTTTCCCGGTAATCCGTATTTGCT (site CAACCAGCTAG)	0.798
CAATCAGCATGGACCGGTTTTCCCGGTAATCCGTATTTGCT (site CAAGCAGCTAG)	0.0241
CAATCAGCATGGACCGGTTTTCCCGGTAATCCGTATTTGCT (site CAATCAGCTAG)	0.199
CAATCCTCATGGACCGGTTTTCCCGGTAATCCGTATTTGAA (site CAATACTCTTT)	1.33
CAATCCTCATGGACCGGTTTTCCCGGTAATCCGTATTTGAA (site CAATCCTCTTT)	1.98
CAATCCTCATGGACCGGTTTTCCCGGTAATCCGTATTTGAA (site CAATGCTCTTT)	0.00935
CAATCCTCATGGACCGGTTTTCCCGGTAATCCGTATTTGAA (site CAATTCTCTTT)	0
CAATGAGCATGGACCGGTTTTCCCGGTAATCCGTATTTGGG (site AAATGAGCTCC)	0.0303
CAATGAGCATGGACCGGTTTTCCCGGTAATCCGTATTTGGG (site CAATGAGCTCC)	0.779
CAATGAGCATGGACCGGTTTTCCCGGTAATCCGTATTTGGG (site GAATGAGCTCC)	0.00334
CAATGAGCATGGACCGGTTTTCCCGGTAATCCGTATTTGGG (site TAATGAGCTCC)	0.0682
CAATGCCCATGGACCGGTTTTCCCGGTAATCCGTATTTGCT (site CAATACCCTAG)	1.74
CAATGCCCATGGACCGGTTTTCCCGGTAATCCGTATTTGCT (site CAATCCCCTAG)	0.246
CAATGCCCATGGACCGGTTTTCCCGGTAATCCGTATTTGCT (site CAATGCCCTAG)	1.34

Sequence	recombinant UMI read abundance (log10)
CAATGCCCATGGACCGGTTTTCCCGGTAATCCGTATTTGCT (site CAATTCCCTAG)	0
CAATGCGCATGGACCGGTTTTCCCGGTAATCCGTATTTGAA (site CAATGCACTTT)	1.15
CAATGCGCATGGACCGGTTTTCCCGGTAATCCGTATTTGAA (site CAATGCCCTTT)	0.0173
CAATGCGCATGGACCGGTTTTCCCGGTAATCCGTATTTGAA (site CAATGCGCTTT)	1.9
CAATGCGCATGGACCGGTTTTCCCGGTAATCCGTATTTGAA (site CAATGCTCTTT)	0.823
CAATGCTCATGGACCGGTTTTCCCGGTAATCCGTATTTGAC (site CAATGCTCTAT)	0.737
CAATGCTCATGGACCGGTTTTCCCGGTAATCCGTATTTGAC (site CAATGCTCTCT)	0.051
CAATGCTCATGGACCGGTTTTCCCGGTAATCCGTATTTGAC (site CAATGCTCTGT)	3.03
CAATGCTCATGGACCGGTTTTCCCGGTAATCCGTATTTGAC (site CAATGCTCTTT)	1.28
CAATGCTCATGGACCGGTTTTCCCGGTAATCCGTATTTGAT (site CAATGCTCTAT)	2.87
CAATGCTCATGGACCGGTTTTCCCGGTAATCCGTATTTGAT (site CAATGCTCTCT)	0.607
CAATGCTCATGGACCGGTTTTCCCGGTAATCCGTATTTGAT (site CAATGCTCTGT)	1.36
CAATGCTCATGGACCGGTTTTCCCGGTAATCCGTATTTGAT (site CAATGCTCTTT)	0.993
CAATTAACATGGACCGGTTTTCCCGGTAATCCGTATTTGTT (site CAATTAACTAA)	0.00834
CAATTCCCATGGACCGGTTTTCCCGGTAATCCGTATTTGCT (site AAATTCCCTAG)	0
CAATTCCCATGGACCGGTTTTCCCGGTAATCCGTATTTGCT (site CAAATCCCTAG)	0.763
CAATTCCCATGGACCGGTTTTCCCGGTAATCCGTATTTGCT (site CAACTCCCTAG)	1.16
CAATTCCCATGGACCGGTTTTCCCGGTAATCCGTATTTGCT (site CAAGTCCCTAG)	1.05
CAATTCCCATGGACCGGTTTTCCCGGTAATCCGTATTTGCT (site CAATACCCTAG)	0.712
